Reference: patent US11148998B2, “Dimethyl-nonatetraenyl-trimethyl-cyclohexyl compounds and uses thereof” (The Regents of the University of Michigan, priority 2017, dated 2021)

How the values were obtained:
[1] = test system: human dermal fibroblasts; assay: Generation of pro-inflammatory cytokines by fibroblasts (multiplex ELISA); format: cell-based; details: KBM 1.5 mM calcium, two days, culture fluids
Experimental: Fibroblasts were grown in KBM supplemented with 1.5 mM calcium (i.e., as in the fibroblast cytotoxicity assay) for two days. Culture fluids obtained at the end of the incubation period were assessed for several pro-inflammatory cytokines using a multiplex (ELISA-type) assay. Values shown are means and ranges based on duplicate samples in a single experiment. The experiment was repeated two times with similar results.
It is believed that the pro-inflammatory cytokines are “drivers” of the retinoid-induced skin irritation response. […] In this experiment, fibroblasts were cultured for two days in KBM supplemented with 1.5 mM calcium (i.e., as in the cytotoxicity assay). Culture fluids were collected after two days of incubation and subjected to a multiplex enzyme-linked immunosorbant assay (ELISA) for the following cytokines: TNF-α, IL-1β, IL-6, IL-8, MCP-1 and CXCL-1.

[2] = test system: rhino mouse skin; assay: Rhino mouse topical treatment: skin histology (horn-filled utriculi, epidermal thickness, inflammation); format: in vivo; details: for Epidermal thickness / Utriculus number / skin structure in histology (dermal thickness, utriculi, necrosis, infiltration) / inflammatory response / inflammatory cell infiltrate in histological sections (in words) / Inflammatory index: 21 days; for Inflammatory index: scored 0 to 4+
Description: FIGS. 12A-C: Efficacy of retinoids at normalizing structure of rhino mouse skin after topical treatment for 21 days.
FIGS. 13A-C: Dose related effect of Example 2 on rhino mouse skin.
The rhinomouse model is an industry-standard pre-clinical model for evaluation of retinoids for anti-acne activity. The mice can be treated topically over a course of days with the desired compound (either formulated or in liquid solvent). During the course of treatment, the animals can be evaluated grossly for skin irritation. At the end of the treatment phase, the animals are euthanized. Skin from treated sites can be evaluated for efficacy—reduction in the number of horn-filled utriculi—and for histological evidence of inflammation.
(§1) As a control, Tretinoin-0.1% was used. […] This is a commonly-prescribed anti-acne medicine.
One day after the last treatment, animals were euthanized. The animals were injected with 7 ml 10% buffered formalin after euthanasia. 15 minutes later the treated area on the back of the mouse was removed and cut into 8 pieces. Every other piece was taken, so four pieces of skin were mounted in one cassette and fixed for histology. An extra piece of skin from a non-treated area was also evaluated.
Hematoxylin and eosin stained sections were evaluated microscopically for epidermal thickness with measurements made in the inter-follicular regions at 4 representative sites per tissue strip.
The number of horn-filled utriculi was determined by direct counting in the entire section of skin. Each of the four sections per biopsy was used for determining the number of utriculi. Section lengths were measured as a way to normalize findings. Typically, the section of skin varied from 16-20 mm.
Slides were examined microscopically and inflammation was scored on a 0 to 4+ basis. A score of zero indicated no inflammation while increasing collection of inflammatory cells was identified with increasing score. Slides were also evaluated to determine if inflammation was confined to the dermis or whether there was epidermal inflammation. Dermal inflammation was assessed to determine if inflammatory cells were scattered throughout the dermis or whether small abscesses were also present. Finally, the inflammatory lesions were evaluated to determine whether they consisted of primarily mononuclear cells, granulocytic cells or both. A similar scale has been used previously in the assessment of skin irritation.
At the end of the in-life portion of the study, mice were euthanized by CO2 overdose. Hematoxylin and eosin-stained histological sections from each mouse in the control, ATRA-treated and Compound 2-treated groups were evaluated with regard to the number of horn-filled utriculi, epidermal thickness, and inflammation. Briefly, the epidermis of control mice consisted of a thin epidermis with large numbers of horn-filled utriculi (98+10 per 20 mm of epidermal linear length). […] Both the ATRA-treated mouse (top right panel) the Compound 2 treated skin (bottom panel) show both much thickened […] and disappearance of utriculi. […] There were large numbers of inflammatory cells in the dermis. Microabscesses could be seen in places, and migration of inflammatory cells into the epidermis was also evident. The infiltrate consisted of both mononuclear cells and granulocytes. […] The three other experimental retinoids were also examined along with Compound 2. […] In FIG. 13 it can be seen that during the dosing period 0.1% of Compound 2 led to skin thickening, but incomplete resolution of the utricali, whereas at 0.3% the utricali were more fully resolved.

[3] = test system: rhino mouse skin; assay: Rhino mouse topical treatment: gross skin irritation (modified Draize scale); format: in vivo; details: for gross skin appearance / irritation: topical daily for 21 days, photographed Day 22, ATRA as 35 mg of 0.1% cream, Examples in DMSO
Experimental: FIGS. 10A-C: Lack of Dose-related skin irritation after 21 day topical treatment of rhino mice with 100 μL DMSO control (10A) and 100 μL DMSO containing Example 2 at 0.1 (10B) and 0.3% concentrations (10C).
FIG. 11. […] The cumulative irritation score is a modified version of the Draize irritation scale, and the animals were assessed daily by an assessor who was blinded to the treatment given each mouse.
Rhino mice (HRS\J hr^rhhr^rh)) were obtained from Jackson Laboratories. Animals were recent weanlings; at this stage in the life of the rhinomouse, the phenotype (i.e., skin with numerous horn-filled utriculi) is well expressed and continues to be for several weeks. Both males and females were included. Animals were divided into treatment groups. Once in the laboratory, the mice were kept in temperature- and humidity-controlled rooms. All procedures during the in-life portion of the study were carried out in facilities of the Unit for Laboratory Animal Medicine (ULAM) at the University of Michigan—which is an AAALAC-certified institution. All procedures were carried out with approval by the University of Michigan Institutional Animal Care and Use Committee (IACUC).
as §1
Animals were housed individually during the treatment phase of the study. During the treatment phase, animals were assessed daily for overall health, and for signs of skin irritation. The Draize scale was used to assess skin irritation. The Draize scale evaluates the parameters of erythema and edema. Each parameter was scored between 0 and 4+ with 0 indicating no difference from control mice and 4+ indicating maximum erythema or edema. In addition, animals were assessed for dryness/flaking/cracking (single score). The overall irritation score was a compilation of the three parameters in all mice from a treatment group. During the treatment phase, animals were weighed weekly.
FIG. 1 left provides a summation of the skin irritation response in the different treatment groups. In control mice, there was little evidence of skin irritation at any time throughout the study. […] The initial spike in irritation was followed by a dip and then secondary rise. This is consistent with what is typically seen with ATRA. […] Neither the control mouse nor the Compound 1 & 2 treated mice show visible signs of irritation in the skin. In contrast, skin from the ATRA-treated mouse is red, dry and flaky. Small cracks in the skin can be seen and there is significant edema.

[4] = topical, concentration not given

SMILES | induction of pro-inflammatory cytokines (TNF-α, IL-1β, IL-6, IL-8, MCP-1, CXCL-1) [1] | Epidermal thickness ([2]; 0.1% topical) | Utriculus number ([2]; 0.1% topical) | skin structure in histology (dermal thickness, utriculi, necrosis, infiltration) ([2]; 0.1% topical) | inflammatory response / inflammatory cell infiltrate in histological sections (in words) [2, 4] | cumulative irritation score (modified Draize scale) ([3]; 0.1% topical daily for 21 days) | gross skin appearance / irritation [3] | induction of pro-inflammatory cytokines (TNF-α, IL-1β, IL-6, IL-8, MCP-1, CXCL-1) ([1]; listed as Compound 1) | number of utriculi compared to control (in words) [2, 4] | induction of pro-inflammatory cytokines (TNF-α, IL-1β, IL-6, IL-8, MCP-1, CXCL-1) ([1]; listed as Compound 2) | Inflammatory index ([2]; 0.1% topical) | Epidermal thickness ([2]; 0.3% topical) | Utriculus number ([2]; 0.3% topical) | Inflammatory index ([2]; 0.3% topical) | signs of serious skin irritation ([3]; 0.1% and 0.3% in DMSO, topical, 21 days)
CC1=C(/C=C/C(C)=C/C=C/C(C)=C/C(=O)O)C(C)(C)CCC1 [ATRA, all-trans retinoic acid, reference compound] | induced a strong up-regulation of several cytokines | 68 ± 17 | 2 ± 2 per 20 mm of epidermal linear length | overall dermal layer is considerably thicker, and the utriculi have gone, the dermal layer has large necrotic areas, and is heavily infiltrated with activated leukocytes and macrophages | intense inflammatory cell infiltrate | far more irritant | considerable skin irritation, along with excessive skin flaking |  |  |  |  |  |  |  | 
CC1=C(/C=C/C(C)=C\C=C\C(C)=C\C(=O)N(C)CC(=O)C(C)(C)C)C(C)(C)CCC1 [Example 1, (2E,4E 6Z,8E)-N-(3,3-dimethyl-2-oxobutyl)-N,3,7-trimethyl-9-(2,6,6-trimethylcyclohex-1-en-1-yl)nona-2,4,6,8-tetraenamide] | no evidence of cytokine induction at the highest concentration |  |  |  | did not produce an inflammatory response |  | normal rhino mouse appearance | not observed | reduced the number of utriculi as compared to control |  |  |  |  |  | 
CC1=C(/C=C/C(C)=C\C=C\C(C)=C\C(=O)N(C)CC(=O)c2ccccc2)C(C)(C)CCC1 [Example 2, (2E,4E 6Z,8E)-N,3,7-trimethyl—N-(2-oxo-2-phenylethyl)-9-(2,6,6-trimethylcyclohex-1-en-1-yl)nona-2,4,6,8-tetraenamide] | no evidence of cytokine induction at the highest concentration | 45 ± 8 | 7 ± 5 per 20 mm of epidermal linear length | normalization of dermal thickness, but still many structural remnants of utriculi | little inflammatory cell infiltrate |  | normal rhino mouse appearance |  |  | not observed | 1.1 ± 0.6 | 44 ± 6 | 5 ± 3 per 20 mm of epidermal linear length | 0.9 ± 0.4 | did not show any signs of serious skin irritation at either dose
